What was measured:
[1] = Farmer et al. 1995; cited from earlier work
main artery = assay: Analysis for fatty streak in the main artery of rabbits; format: in vivo, rabbit (New Zealand White)
Description: Cinnamic acid derivatives were purchased from Sigma Chemical Co. (St. Louis, Mo.). The rabbits were fed for 8 weeks while being allowed free access to the diets and water. The chest of each of the rabbits sacrificed in Step 2 was incised. […] The main artery was incised in the middle along the longitudinal axis and pinned to a dish. The moist artery was photographed and, then, the staining of fatty streaks was carried out in accordance with the method of […]., et al. (J. Lab. Clin. Med., 121, 103-110(1993)) as follows. A part of the incised main artery was washed three times with anhydrous propylene glycol for 2 min. and stained for 30 min. with a saturated solution of Oil Red O (ORO, Sigma Co.) dissolved in propylene glycol. Thereafter, the artery was washed twice with 85% propylene glycol for 3 min. to remove remaining staining solution and, then washed with physiological saline. The artery was photographed and the photograph was traced. The area of stained region (fatty streak region) was determined with an image analyzer (LEICA, Q-600, Germany) and its proportion (%) to the total arterial area was calculated.

[2] = format: in vivo, rabbit (New Zealand White); settings: rabbits, 1% cholesterol diet plus 0.1% derivative or 1 mg/kg Lovastatin, 8 weeks
Description: (§1) 30 three-month-old male New Zealand White rabbits (Yeonam Horticulture and Animal Husbandry College, Korea), each weighing about 2.5 to 2.6 kg, were raised under condition of temperature 20±2° C., relative humidity 55±5%, and photoperiod 12L/12D. The rabbits were divided into 5 groups and 5 groups of rabbits were fed with 5 different diets, i.e., RC4 diet (Oriental Yeast Co., Japan) containing 1% cholesterol (Control group); 1% cholesterol plus 1 mg/kg Lovastatin® (Merck, U.S.A.) (Lovastatin group); 1% cholesterol plus 0.1% 4-hydroxycinnamic acid (4-hydroxycinnamic acid group); 1% cholesterol plus 0.1% 3,4-dihydroxycinnamic acid (3,4-dihydroxycinnamic acid group); and 1% cholesterol plus 0.1% 3,4-dihydroxyhydrocinnamic acid (3,4-dihydroxyhydrocinnamic acid group), respectively. RC4 diet comprises 7.6% moisture, 22.8% crude protein, 2.8% crude fat, 8.8% crude ash, 14.4% crude cellulose and 43.6% soluble nitrogen-free substances. Cinnamic acid derivatives were purchased from Sigma Chemical Co. (St. Louis, Mo.).
(§2) The rabbits were fed for 8 weeks while being allowed free access to the diets and water.
After eight weeks, the rabbits were anesthetized with an intramuscular injection of ketamine (50 mg/kg) in the femoral region and sacrificed. A blood sample was taken from the heart of each rabbit, allowed to stand for 2 hours and centrifuged at 3,000 rpm for 15 minutes and the supernatant serum was separated and stored in a freezer before use.
The chemical analysis of blood was carried out by employing a blood chemical analyzer (CIBA Corning 550 Express, USA) to determine the changes in GOT, GPT, total cholesterol, HDL-cholesterol and triglyceride levels.

liver = assay: Prevention of hepatic diseases: microscopic fatty liver grading in rabbits; format: in vivo, rabbit (New Zealand White)
Description: as §1, §2

**Q.** For `CC[C@H](C)C(=O)O[C@H]1C[C@@H](C)C=C2C=C[C@H](C)[C@H](CC[C@@H]3C[C@@H](O)CC(=O)O3)[C@H]21` [Lovastatin, reference compound], which side effects [1] is on record?
**A.** Its side effects is “increase in creatine kinase in the liver and rhabdomyolysis”.

**Q.** What about the “macrophage-lipid complex on the arterial endothelium” value (main artery; FIGS. 1A-1E, control: a thick layer) of the same molecule?
**A.** The value was “no or very thin layers of macrophage-lipid complex”.

**Q.** And the Fatty streak (main artery; proportion of total arterial area, Oil Red O, rabbits, 8 weeks, Control 80 ± 8)?
**A.** Its Fatty streak is 15 ± 3%.

**Q.** And the HDL/TC ([2]; Control 2.5 ± 0.4)?
**A.** The HDL/TC was 4.9 ± 2.6%.

**Q.** What about the “HDL-C (High density lipoprotein-cholesterol)” value ([2]; Control 50 ± 11) of the same molecule?
**A.** Its value is 58 ± 23 mg/dL.

**Q.** What about the “TG (Triglyceride)” value ([2]; Control 170 ± 30) of the same molecule?
**A.** The value was 153 ± 95 mg/dL.

**Q.** What about the “TC (Total cholesterol)” value ([2]; Control 1995 ± 472) of the same molecule?
**A.** Its value is 1446 ± 263 mg/dL.

**Q.** And the “microscopic features of the liver” value (liver; FIGS. 2A-2E, control: many cells containing excessive fat around the central vein)?
**A.** Its value is “many cells containing excessive fat were observed around the central vein”.

**Q.** And the “fatty liver grade (1+ to 4+)” value (liver; grades 1+(0-25%), 2+(26-50%), 3+(51-75), 4+(76-100%), rabbits, 8 weeks, Control 3.2 ± 0.3)?
**A.** Its value is 3.4 ± 0.5.

Reference: US6313171A, “Method for preventing or treating elevated blood lipid level-related diseases by administering cinnamic acid derivatives” (Korea Research Institute of Bioscience & Biotechnology, priority 1998, dated 2001)
